Test results from US20240315966A1, “COMPOSITION CONTAINING LOXOPROFEN SODIUM” (GUANGZHOU OCUSUN OPHTHALMIC BIOTECHNOLOGY CO., LTD., priority 2021, published 2024).
Read-outs that look alike come from different tables or passages of the source.

Test: Phase I clinical trial, pharmacokinetics of loxoprofen sodium eye drops
Details: human, in vivo, topical or ocular; for AUC(0-t): read-out: Average AUC0-t
Protocol: loxoprofen sodium eye drops: eye drops of different concentrations were prepared according to Example 1; and
2. Research methods: single-center, randomized, double-blind, single and multiple administration dosage escalation designs were used to explore the safety, tolerability and pharmacokinetic characteristics of loxoprofen sodium eye drops. Single administration includes dosages of 0.025 mg (a concentration of 0.5 mg/ml), 0.05 mg (a concentration of 1 mg/ml), 0.1 mg (a concentration of 2 mg/ml), and 0.2 mg (a concentration of 4 mg/mL), with an administration method of once a day, one drop each; and multiple administration includes dosages of 0.05 mg, 0.1 mg, and 0.2 mg, with an administration method of four times a day, one drop each.

Cmax (0.05 mg, multiple administration (four times a day)): 2.66 ± 0.6 ng/mL
AUC(0-t) (0.05 mg, multiple administration (four times a day), 0.05 mg): 0.47 ± 0.43 ng·h/mL
Cmax (0.1 mg, multiple administration (four times a day)): 4.22 ± 1.79 ng/mL
AUC(0-t) (0.1 mg, multiple administration (four times a day), 0.1 mg): 2.08 ± 1.56 ng·h/mL
Cmax (0.1 mg, single administration): 3.69 ± 0.88 ng/mL
AUC(0-t) (0.1 mg, single administration, 0.1 mg): 1.71 ± 0.99 ng·h/mL
Cmax (0.2 mg, multiple administration (four times a day)): 9.46 ± 3.73 ng/mL
AUC(0-t) (0.2 mg, multiple administration (four times a day), 0.2 mg): 8.33 ± 4.4 ng·h/mL
Cmax (0.2 mg, single administration): 8.73 ± 5.19 ng/mL
AUC(0-t) (0.2 mg, single administration, 0.2 mg): 6.82 ± 6.3 ng·h/mL
Tmax (multiple administration (four times a day), 0.05 mg): 12 min
Tmax (multiple administration (four times a day), 0.1 mg): 12 min
Tmax (multiple administration (four times a day), 0.2 mg): 12 min
SMILES: CC(C(=O)O)c1ccc(CC2CCCC2=O)cc1 (stereo not shown) [loxoprofen]
